Assay results reported in patent US6197802A, “Fungicidal melithiazole derivatives” (American Cyanamid Co., priority 1997, dated 2001).
In brackets after ≈: the same amount, converted by molar mass. Read-outs that look alike come from different tables or passages of the source.

Experiments:
Botrytis cinera = experiment: Serial dilution test, Minimum Inhibitory Concentration, Botrytis cinera (BOC); format: cell-based; settings: read-out: MIC (BOC)
Experimental: (§1) Determination of Minimum Inhibitory Concentration by Test Compounds in the Serial Dilution Test with Botrytis cinera (BOC), and Hansenula anomala (HNA).
(§2) The MIC (Minimum Inhibitory Concentration) value, which indicates the lowest concentration of the active ingredient in the growth medium which causes a total inhibition of mycelial growth, is determined by serial dilution tests. The compounds of the invention have been compared with known melithiazole C. melithiazole C-amide and with the commercially available strobilurines kresoxim-methyl (BASF AG) and azoxystrobin (ZENECA).

Hansenula anomala = experiment: Serial dilution test, Minimum Inhibitory Concentration, Hansenula anomala (HNA); format: cell-based; settings: read-out: MIC (HNA)
Experimental: as §1, §2

[1] = system: mouse fibroblasts (cell line L929); experiment: Toxicity using mouse fibroblasts (cell line L929); format: cell-based; settings: for Therapeutic Index: ratio toxicity IC50 (L929) / BOC-MIC
Description: In addition, the toxicity IC50 of these compounds has been evaluated using mouse fibroblasts (cell line L929). The therapeutic index given is defined as the ratio between the toxicity and the BOC-MIC value (IC50 /MIC).

Plasmopara viticola [2] = experiment: Curative (2 d cur) activity, grape downy mildew (GDM); format: in vivo; settings: 2 d curative
Plasmopara viticola [3] = experiment: Protective (1 d res) activity, grape downy mildew (GDM); format: in vivo; settings: 1 d protective
Phytophthora infestans = format: in vivo; settings: 1 d protective
Pyrenophora teres = experiment: Protective (1 d res) activity, barley net blotch (BNB); format: in vivo; settings: 1 d protective
phytopathogenic fungi = experiment: Curative in-vivo tests, overall statement; settings: overall statement in words
Experimental: Test Plants: Test plants were grown up in the greenhouse. Either seed, pregerminated seed or rooted vegetative plant material was planted in pots containing a fertilized soil/peat mixture. Test plants were used for treating them with the various fungicides when they were in the 3-4 leaf stage. The number of leaves of vegetatively propagated plant material was cut back to 3-4 leaves per plant.
Application: Test plants were treated with fungicides either 1 or 3 days before (protective treatments) or 2 or 3 days after (curative treatments) the inoculation with a pathogen. The test compounds were applied to the test plants using a lateral-nozzle sprayer with a turntable rotating the pots, or the test compounds were applied with an hand-held airbrush. 24 plants were used per treatment.
Compounds: Technical material of the compound according to the invention coded MCM, and of commercially available strobilurines kresoxim-methyl (BASF) and azoxystrobin (ZENECA) was dissolved in acetone with 0.5% Triton X155 at a concentration of 0.5%. […]
Assessment of diseases: The percentage of leaf area infected was assessed by visual estimation when untreated control plants were just completely diseased. Each plant was individually evaluated and then the mean infection rating was calculated for each treatment. The fungicidal activity was calculated using the following formula: [formula] […]

[4] = system: powdery mildew (Erysiphe graminis) on wheat; experiment: Foliar systemicity in wheat leaves, wheat powdery mildew as indicator disease; settings: for Systemicity distal (disease free zone) / Systemicity proximal (disease free zone): wheat leaves, band application of 400 ppm solution; for Systemicity distal (disease free zone): toward leaf apex; for Systemicity proximal (disease free zone): toward leaf base
Description: Foliar systemicity: When the primary leaves of wheat planted in 8 cm diameter pots in the greenhouse were fully expanded, the plants were cut back to four leaves in each pot of which two were marked with a permanent marker 5 cm below the leaf tip on the upper leaf surface. Thus there were two band-treated and two untreated plants in each pot. […] The application band covered the whole leaf width. After application and after the bands were dried, the plants were moved to the greenhouse and kept there for 2 days to allow for movement of the compounds. The plants were kept by bottom watering. The plants were then inoculated by dusting them with powdery mildew conidia (Erysiphe graminis). Evaluations were made 7-8 days after inoculation. Distal and proximal movement were assessed as follows: The distal and proximal disease free zones on the upper leaf surface were measured in mm. The distal direction is from the band toward the leaf apex and the proximal direction is from the band towards the leaf base.

Bortrytis cinera = settings: poster of B. Bohlendorf et al., 1996; cited from earlier work
[5] = Botrytis cinera, total inhibition of mycelial growth
[6] = total inhibition of mycelial growth
[7] = toxicity, mouse fibroblasts L929, read-out: IC50

Row | SMILES | MIC (Botrytis cinera; [5]) | MIC (Hansenula anomala; [6]) | Therapeutic Index [1] | IC50 [1, 7] | other results
1 | CCOC(=O)/C=C(/OC)[C@H](C)[C@H](/C=C/c1csc(C(C)=NOC)n1)OC (mixture of isomers) [(E/Z)-(13/14)] | 0.005 µg/mL | 0.02 µg/mL | 40 | 0.2 µg/mL | –
2 | CON=C(C)c1nc(/C=C/[C@H](OC)[C@@H](C)/C(=C\C(=O)OC)OC)cs1 (mixture of isomers) [MCM] | – | – | – | – | activity (%) GDM 2d cur (Plasmopara viticola [2]; dose 4 ppm): 0%; activity (%) GDM 2d cur (Plasmopara viticola [2]; dose 20 ppm): 59%; activity (%) GDM 1 d res (Plasmopara viticola [3]; dose 4 ppm): 92%; activity (%) GDM 1 d res (Plasmopara viticola [3]; dose 20 ppm): 100%; activity (%) TLB 1 d res (Phytophthora infestans; dose 4 ppm): 25%; activity (%) TLB 1 d res (Phytophthora infestans; dose 20 ppm): 65%; activity (%) BNB 1 d res (Pyrenophora teres; dose 4 ppm): 100%; activity (%) BNB 1 d res (Pyrenophora teres; dose 20 ppm): 100%; curative activity (phytopathogenic fungi): better than that of the commercialized strobilurine derivatives kresoxim-methyl and azoxystrobin; foliar systemicity ([4]; overall statement in words): better than that of the commercialized strobilurine derivatives kresoxim-methyl and azoxystrobin; bioavailable ([4]; plant, implied by foliar systemicity and curative values): readily and highly bioavailable; Systemicity distal (disease free zone) [4]: 50 mm; Systemicity proximal (disease free zone) [4]: 21 mm
3 | CO/C(=C/C(N)=O)[C@H](C)[C@H](/C=C/c1csc(C(C)=O)n1)OC [1:melithiazole C-amide, 7-(2-acetylthiazol-4-yl)-3,5-dimethoxy-4-methylheptan-2,6-dienoic amide, reference compound] | > 10 µg/mL | > 10 µg/mL | < 0.8 | 8 µg/mL (≈ 24.7 µM) | –
4 | COC(=O)/C=C(/OC)[C@H](C)[C@H](/C=C/c1csc(C(C)=O)n1)OC [2:melithiazole C, methyl 7-(2-acetylthiazol-4-yl)-3,5-dimethoxy-4-methylheptan-2,6-dienoate, reference compound] | 1.5 µg/mL (≈ 4.42 µM) | 3 µg/mL (≈ 8.84 µM) | 0.37 | 0.55 µg/mL (≈ 1.62 µM) | in vitro activity against Bortrytis cinera (Bortrytis cinera): weak in vitro activity
5 | CO/N=C(\C)c1nc(/C=C/[C@H](OC)[C@@H](C)/C(=C\C(=O)OC)OC)cs1 [8:(E)-MCM] | 0.0025 µg/mL (≈ 0.00679 µM) | 0.08 µg/mL (≈ 0.217 µM) | 160 | 0.4 µg/mL (≈ 1.09 µM) | –
6 | CO/N=C(/C)c1nc(/C=C/[C@H](OC)[C@@H](C)/C(=C\C(=O)OC)OC)cs1 [8:(Z)-MCM] | 0.005 µg/mL (≈ 0.0136 µM) | 0.08 µg/mL (≈ 0.217 µM) | 100 | 0.5 µg/mL (≈ 1.36 µM) | –
7 | COC(=O)/C=C(/OC)[C@H](C)[C@H](/C=C/c1csc(/C(C)=N\OCc2ccccc2)n1)OC [Example 9] | 0.15 µg/mL (≈ 0.337 µM) | 0.6 µg/mL (≈ 1.35 µM) | 3.33 | 0.5 µg/mL (≈ 1.12 µM) | –
8 | COC(=O)/C=C(/OC)[C@H](C)[C@H](/C=C/c1csc(/C(C)=N/OCc2ccccc2)n1)OC [Example 10] | 0.04 µg/mL (≈ 0.09 µM) | 0.3 µg/mL (≈ 0.675 µM) | 1.25 | 0.05 µg/mL (≈ 0.112 µM) | –
9 | COC(=O)/C=C(/OC)[C@H](C)[C@H](/C=C/c1csc(C(C)OC(C)=O)n1)OC (some centres unmarked) [Example 20, Methyl 7-[2-(1-acetoxyethyl)thiazol-4-yl]-3,5-dimethoxy-4-methylheptan-2,6-dienoate] | 0.3 µg/mL (≈ 0.782 µM) | 1.25 µg/mL (≈ 3.26 µM) | > 13.33 | > 4 µg/mL | –
10 | COC(=O)/C=C(/OC)[C@H](C)[C@H](/C=C/c1csc(C(C)OC)n1)OC (some centres unmarked) [Example 21, Methyl 7-[2-(1-methoxyethyl)thiazol-4-yl]-3,5-dimethoxy-4-methylheptan-2,6-dienoate] | 0.15 µg/mL (≈ 0.422 µM) | 0.08 µg/mL (≈ 0.225 µM) | 13.33 | 2 µg/mL (≈ 5.63 µM) | –
11 | C=C(C)c1nc(/C=C/[C@H](OC)[C@@H](C)/C(=C\C(=O)OC)OC)cs1 [Example 29, Methyl 7-[2-isopropenylthiazol-4-yl]-3,5-dimethoxy-4-methylheptan-2,6-dienoate] | – | – | 100 | – | MIC (Botrytis cinera; Botrytis): 0.02 µg/mL (≈ 0.0593 µM); MIC (Hansenula anomala): 0.3 µg/mL (≈ 0.889 µM); IC50 ([1]; Mus musculus, L929): 2 µg/mL (≈ 5.93 µM)
12 | COC(=O)/C=C(/OC)[C@H](C)[C@H](/C=C/c1csc(C2(C)CO2)n1)OC (some centres unmarked) [Example 41, Methyl 7-[2-(1,2-epoxy-1-methylethyl)thiazol-4-yl]-3,5-dimethoxy-4-methylheptan-2,6-dienoate] | – | – | > 6.17 | – | MIC (Botrytis cinera; Botrytis): 0.6 µg/mL (≈ 1.7 µM); MIC (Hansenula anomala): 5 µg/mL (≈ 14.1 µM); IC50 ([1]; Mus musculus, L929): > 3.7 µg/mL
13 | CO/C=C(/C(=O)OC)c1ccccc1Oc1cc(Oc2ccccc2C#N)ncn1 [azoxystrobin, reference compound] | – | – | – | – | Systemicity distal (disease free zone) [4]: 43 mm; Systemicity proximal (disease free zone) [4]: 9 mm
14 | CO/N=C(/C(=O)OC)c1ccccc1COc1ccccc1C [kresoxim-methyl, reference compound] | 0.1 µg/mL (≈ 0.319 µM) | – | 3.75 | 0.375 µg/mL (≈ 1.2 µM) | activity (%) GDM 2d cur (Plasmopara viticola [2]; dose 4 ppm): 0%; activity (%) GDM 2d cur (Plasmopara viticola [2]; dose 20 ppm): 9%; activity (%) GDM 1 d res (Plasmopara viticola [3]; dose 4 ppm): 39%; activity (%) GDM 1 d res (Plasmopara viticola [3]; dose 20 ppm): 87%; activity (%) BNB 1 d res (Pyrenophora teres; dose 4 ppm): 97%; activity (%) BNB 1 d res (Pyrenophora teres; dose 20 ppm): 98%; Systemicity distal (disease free zone) [4]: 23 mm; Systemicity proximal (disease free zone) [4]: 13 mm
